Here are results for 14 compounds from patent US20230056205A1, “SUBSTITUTED 4,6-DIHYDROSPIRO[[1,2,3]TRIAZOLO[4,5-B]PYRIDINE-7,3'-INDOLINE]-2',5(3H)-DIONE ANALOGUES” (The Board of Regents of The University of Texas System, priority 2019, published 2023).

Where only a bound is given, the exact number is not on record here.

The subject of one data set is DENV-4 replicon. As to the kind of experiment: Luciferase reporter replicon-based screening, DENV-4. It is filed as cell-based, DENV-4 (strain D4MY01-22713). Particulars: Dengue virus, DENV4, Huh-7, 48 h, read-out: EC50 DENV-4. The procedure, abridged:
(§1)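 Huh7 cells carrying Renilla luciferase/neo replicons of DENV-1 (WestPac), DENV-2 (NGC), DENV-3 (D3MY05-34640) or DENV-4 (D4MY01-22713), treated with 2-fold compound dilutions for 48 h at 37 °C in duplicate. Live-cell luciferase read; EC50 by four-parameter logistic fit.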
For orientation: In a reporter assay the amount or activity of a reporter protein is the signal.

Data set [1] can be described thus: Cytotoxicity assay (CellTiter-Glo). It is filed as cell-based. Particulars: human, Huh7 cells stably expressing DENV-2 replicon. The procedure, abridged: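 Huh7 or Huh7 replicon cells, seeded overnight at 37 °C, exposed to 2-fold serial dilutions of compound for 48 h in duplicate. Viability by CellTiter-Glo, normalised to 0.45% DMSO wells (100%); CC50 by four-parameter logistic regression.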

Data set [2] deals with P12 resistant DENV-2 viruses (NS4B V63M or V63L). It is filed as cell-based, DENV-2 strain NGC. The settings on record: after twelve rounds of selection with compound 63, selections III to VI, Huh7 cells.
The next data set relates to DENV-3 replicon. As to the kind of experiment: Luciferase reporter replicon-based screening, DENV-3. It counts as cell-based, DENV-3 (strain D3MY05-34640). The settings on record: Dengue virus, DENV3, Huh-7, 48 h, read-out: EC50 DENV-3, Huh7 cells stably expressing DENV-3 replicon, 48 h. The procedure, abridged:
as §1

A further data set has as its system DENV-1 replicon. As to the kind of experiment: Luciferase reporter replicon-based screening, DENV-1. It is filed as cell-based, DENV-1 (strain WestPac). Particulars: Dengue virus, DENV1, Huh-7, 48 h, read-out: EC50 DENV-1. The procedure, abridged:
as §1

The test system of another data set is DENV-2 replicon. The data set can be described thus: Luciferase reporter replicon-based screening, DENV-2. Particulars: Dengue virus, DENV2, Huh-7, 48 h, read-out: EC50 DENV-2, Huh7 cells stably expressing DENV-2 replicon, 48 h. It counts as cell-based, DENV-2 (New Guinea C strain, NGC). The procedure, abridged: as §1

With `C[C@@H](c1ccc(Cl)cc1)n1nnc2c1NC(=O)C[C@]21C(=O)N(CCCN(C)C)c2ccc(Cl)cc21` [Compound 63, (R)-5'-Chloro-3-((S)-1-(4-chlorophenyl)ethyl)-1'-(3-(dimethylamino)propyl)-4,6-dihydrospiro[[1,2,3]triazolo[4,5-b]pyridine-7,3'-indoline]-2',5(3H)-dione], the EC50 (commonly the concentration needed to bring the measured effect to its halfway point) is more than 5000 nM in the data set with DENV-4 replicon, 1 nM in the data set with DENV-3 replicon, more than 5000 nM in the data set with DENV-1 replicon and 25 nM in the data set on DENV-2 replicon. Further, the CC50 (as a rule, the concentration that lowers cell viability or growth by half) at 48 h in data set [1] was more than 10000 nM. In addition, the “increase of EC50 of resistant viruses (resistance fold vs P0 DENV-2)” value in data set [2] is more than 100 folds.

As to `CC(C)N1C(=O)[C@]2(CC(=O)N(C(C)C)c3c2nnn3[C@@H](C)c2ccc(Cl)cc2)c2cc(Cl)ccc21` [Compound 22, (R)-5'-Chloro-3-((S)-1-(4-chlorophenyl)ethyl)-1',4-diisopropyl-4,6-dihydrospiro[[1,2,3]triazolo[4,5-b]pyridine-7,3'-indoline]-2ʹ,5(3H)-dione], the EC50 with DENV-4 replicon was 3000 nM; in the data set with DENV-3 replicon, 1500 nM; with DENV-1 replicon, 3800 nM; in the data set with DENV-2 replicon, more than 10000 nM. The CC50 at 48 h in data set [1] was more than 10000 nM.

On to `C[C@@H](c1ccc(Cl)cc1)n1nnc2c1NC(=O)C[C@]21C(=O)Nc2ccc(Cl)cc21` [Compound 1a, (R)-5'-Chloro-3-((S)-1-(4-chlorophenyl)ethyl)-4,6-dihydrospiro[[1,2,3]triazolo[4,5-b]pyridine-7,3'-indoline]-2',5(3H)-dione], for which the EC50 was more than 5000 nM in the data set with DENV-4 replicon, 10 nM in the data set on DENV-3 replicon, more than 5000 nM with DENV-1 replicon and 39 nM with DENV-2 replicon. Further, the CC50 at 48 h in data set [1] is more than 10000 nM.

`C[C@@H](c1ccc(Cl)cc1)n1nnc2c1NC(=O)C[C@]21C(=O)N(Cc2ccc(Cl)nc2)c2ccc(Cl)cc21` [Compound 36, (R)-5'-Chloro-3-((S)-1-(4-chlorophenyl)ethyl)-1'-((6-chloropyridin-3-yl)methyl)-4,6-dihydrospiro[[1,2,3]triazolo[4,5-b]pyridine-7,3ʹ-indoline]-2',5(3H)-dione]: the concentration giving a half-maximal response (EC50) in the data set with DENV-4 replicon was more than 5000 nM; in the data set with DENV-3 replicon, 6 nM; with DENV-1 replicon, more than 5000 nM; in the data set with DENV-2 replicon, 78 nM. In addition, the CC50 at 48 h in data set [1] was more than 10000 nM.

With `CC(C)CN1C(=O)[C@]2(CC(=O)Nc3c2nnn3[C@@H](C)c2ccc(Cl)cc2)c2cc(Cl)ccc21` [Compound 14, (R)-5'-Chloro-3-((S)-1-(4-chlorophenyl)ethyl)-1'-isobutyl-4,6-dihydrospiro[[1,2,3]triazolo[4,5-b]pyridine-7,3'-indoline]-2',5(3H)-dione], the concentration giving a half-maximal response (EC50) in the data set with DENV-4 replicon was more than 5000 nM; with DENV-3 replicon, 20 nM; in the data set with DENV-1 replicon, 1300 nM; in the data set on DENV-2 replicon, 150 nM. For the same compound, the CC50 at 48 h in data set [1] is more than 10000 nM.

As for `C[C@@H](c1ccc(Cl)cc1)n1nnc2c1NC(=O)C[C@]21C(=O)N(CCC(C)(C)C)c2ccc(Cl)cc21` [Compound 16, (R)-5ʹ-Chloro-3-((S)-1-(4-chlorophenyl)ethyl)-1ʹ-(3,3-dimethylbutyl)-4,6-dihydrospiro[[1,2,3]triazolo[4,5-b]pyridine-7,3ʹ-indoline]-2ʹ,5(3H)-dione], the EC50 was 3900 nM in the data set with DENV-4 replicon, 82 nM in the data set on DENV-3 replicon, 1100 nM in the data set on DENV-1 replicon and 870 nM in the data set on DENV-2 replicon. The compound also yielded a CC50 at 48 h in data set [1] of more than 10000 nM.

On to `C[C@@H](c1ccc(Cl)cc1)n1nnc2c1NC(=O)C[C@]21C(=O)N(CCN(C)C)c2ccc(Cl)cc21` [Compound 57, (R)-5'-Chloro-3-((S)-1-(4-chlorophenyl)ethyl)-1'-(2-(dimethylamino)ethyl)-4,6-dihydrospiro[[1,2,3]triazolo[4,5-b]pyridine-7,3'-indoline]-2',5(3H)-dione], for which the EC50 in the data set with DENV-4 replicon was more than 5000 nM; in the data set on DENV-3 replicon, 2 nM; with DENV-1 replicon, more than 5000 nM; in the data set with DENV-2 replicon it was 25 nM. This compound also returned a CC50 at 48 h in data set [1] of more than 10000 nM.

On to `C[C@@H](c1ccc(Cl)cc1)n1nnc2c1NC(=O)C[C@]21C(=O)N(Cc2ccc(Cl)cc2)c2ccc(Cl)cc21` [Compound 27, (R)-5'-Chloro-1'-(4-chlorobenzyl)-3-((S)-1-(4-chlorophenyl)ethyl)-4,6-dihydrospiro[[1,2,3]triazolo[4,5-b]pyridine-7,3'-indoline]-2',5(3H)-dione], for which the EC50 was 6500 nM in the data set with DENV-4 replicon, 200 nM with DENV-3 replicon, 2200 nM with DENV-1 replicon and 3300 nM in the data set on DENV-2 replicon. The compound also came in with a CC50 at 48 h in data set [1] of more than 10000 nM.

In the case of `COc1cccc(CN2C(=O)[C@]3(CC(=O)Nc4c3nnn4[C@@H](C)c3ccc(Cl)cc3)c3cc(Cl)ccc32)c1` [Compound 29, (R)-5'-Chloro-3-((S)-1-(4-chlorophenyl)ethyl)-1'-(3-methoxybenzyl)-4,6-dihydrospiro[[1,2,3]triazolo[4,5-b]pyridine-7,3'-indoline]-2',5(3H)-dione], the EC50 in the data set with DENV-4 replicon was found to be 6200 nM; in the data set with DENV-3 replicon, 87 nM; with DENV-1 replicon, 2600 nM; in the data set with DENV-2 replicon it was 830 nM. Besides, the CC50 at 48 h in data set [1] was more than 10000 nM.

Turning to `C[C@@H](c1ccc(Cl)cc1)n1nnc2c1NC(=O)C[C@]21C(=O)N(Cc2cccnc2)c2ccc(Cl)cc21` [Compound 34, (R)-5'-Chloro-3-((S)-1-(4-chlorophenyl)ethyl)-1'-(pyridin-3-ylmethyl)-4,6-dihydrospiro[[1,2,3]triazolo[4,5-b]pyridine-7,3'-indoline]-2',5(3H)-dione], the EC50 in the data set on DENV-4 replicon was more than 5000 nM; in the data set on DENV-3 replicon, 21 nM; in the data set with DENV-1 replicon, 3200 nM; in the data set on DENV-2 replicon it was 29 nM. The same compound displayed a CC50 at 48 h in data set [1] of more than 10000 nM.

For the compound `C#CCN1C(=O)[C@]2(CC(=O)Nc3c2nnn3[C@@H](C)c2ccc(Cl)cc2)c2cc(Cl)ccc21` [Compound 19, (R)-5ʹ-Chloro-3-((S)-1-(4-chlorophenyl)ethyl)-1ʹ-(prop-2-yn-1-yl)-4,6-dihydrospiro [[1,2,3]triazolo[4,5-b]pyridine-7,3ʹ-indoline]-2ʹ,5(3H)-dione], the EC50 is more than 5000 nM with DENV-4 replicon, 3 nM in the data set on DENV-3 replicon, more than 5000 nM in the data set with DENV-1 replicon and 69 nM with DENV-2 replicon. The CC50 at 48 h in data set [1] is more than 10000 nM.

As to `C[C@@H](c1ccc(Cl)cc1)n1nnc2c1NC(=O)C[C@]21C(=O)N(CCc2ccccc2)c2ccc(Cl)cc21` [Compound 32, (R)-5'-Chloro-3-((S)-1-(4-chlorophenyl)ethyl)-1'-phenethyl-4,6-dihydrospiro[[1,2,3]triazolo[4,5-b]pyridine-7,3'-indoline]-2',5(3H)-dione], the EC50 in the data set with DENV-4 replicon was more than 5000 nM; in the data set on DENV-3 replicon it was 190 nM; in the data set on DENV-1 replicon, 1100 nM; in the data set on DENV-2 replicon, 600 nM. The CC50 at 48 h in data set [1] was more than 10000 nM.

For the compound `C[C@@H](c1ccc(Cl)cc1)n1nnc2c1NC(=O)C[C@]21C(=O)N(Cc2cc(C(C)(C)C)cc(C(C)(C)C)c2)c2ccc(Cl)cc21` [Compound 31, (R)-5'-Chloro-3-((S)-1-(4-chlorophenyl)ethyl)-1'-(3,5-di-tert-butylbenzyl)-4,6-dihydrospiro[[1,2,3]triazolo[4,5-b]pyridine-7,3ʹ-indoline]-2',5(3H)-dione], the EC50 is 4900 nM in the data set with DENV-4 replicon, 5900 nM with DENV-3 replicon, 4600 nM in the data set with DENV-1 replicon and more than 10000 nM in the data set with DENV-2 replicon. In data set [1], this compound registered a CC50 at 48 h of more than 10000 nM.

As for `C[C@@H](c1ccc(Cl)cc1)n1nnc2c1NC(=O)C[C@]21C(=O)N(CCN2CCC2)c2ccc(Cl)cc21` [Compound 61, (R)-1'-(2-(Azetidin-1-yl)ethyl)-5'-chloro-3-((S)-1-(4-chlorophenyl)ethyl)-4,6-dihydrospiro[[1,2,3]triazolo[4,5-b]pyridine-7,3'-indoline]-2',5(3H)-dione], the EC50 in the data set with DENV-4 replicon was more than 5000 nM; in the data set on DENV-3 replicon, 7 nM; in the data set on DENV-1 replicon it was more than 5000 nM; with DENV-2 replicon, 67 nM. The CC50 at 48 h in data set [1] was more than 10000 nM.
